Reference: patent US7169782B2, “Aryl substituted thiazolidinones and the use thereof” (Euro-Celtique S.A., priority 2001, dated 2007)
Where two headings read alike, the source gives them in different places.

Molecular target: rBIIa/beta 1 sodium channels expressed in Xenopus oocytes (Rattus norvegicus, UniProt P04775)
Assay: Electrophysiological assay, two-electrode voltage clamp in oocytes, inactivated-state protocol
Type: cell-based
Protocol: An electrophysiological assay was used to measure potencies of compounds of the present invention rBIIa/beta 1 sodium channels expressed in Xenopus oocytes.
Preparation of cRNA encoding cloned rat brain type IIa (rBIIa) and beta 1 (β1): cDNA clones encoding the rat brain beta 1 subunit are cloned in house using standard methods, and mRNA are prepared by standard methods. mRNA encoding rBIIa is provided by Dr. A. Golden (UC Irvine). The mRNAs are diluted and stored at −80° C. in 1 μL aliquots until injection.
Preparation of oocytes: Mature female Xenopus laevis are anaesthetized (20–40 min) using 0.15% 3-aminobenzoic acid ethyl ester (MS-222) following established procedures (Woodward, R. M., et al., Mol. Pharmacol. 41:89–103 (1992)).
Two to six ovarian lobes are surgically removed. Oocytes at developmental stages V–VI are dissected from the ovary, wherein the oocytes are still surrounded by enveloping ovarian tissues. Oocytes are defolliculated on the day of surgery by treatment with collagenase (0.5 mg/mL Sigma Type I, or Boehringer Mannheim Type A, for 0.5–1 hr). Treated oocytes are vortexed to dislodge epithelia, washed repeatedly and stored in Barth's medium containing 88 mM NaCl, 1 mM KCl, 0.41 mM CaCl2, 0.33 mM Ca(NO3)2, 0.82 mM MgSO4, 2.4 mM NaHCO3, 5 mM HEPES, pH 7.4 adjusted with 0.1 mg/mL gentamycin sulphate.
Micro-injection of oocytes: Defolliculated oocytes are micro-injected using a Nanoject injection system (Drummond Scientific Co., Broomall, Pa.). Injection pipettes are beveled to minimize clogging. Tip diameter of injection pipettes is 15–35 μm. Oocytes are microinjected with approximately 50 nL 1:10 ratio mixtures of cRNAs for rBIIa and beta 1 respectively.
Electrophysiology: Membrane current responses are recorded in frog Ringer solution containing 115 mM NaCl, 2 mM KCl, 1.8 mM CaCl2, 5 mM HEPES, pH 7.4. Electrical recordings are made using a conventional two-electrode voltage clamp (Dagan TEV-200) over periods ranging between 1–7 days following injection. The recording chamber is a simple gravity fed flow-through chamber (volume […] depending on adjustment of aspirator). Oocytes are placed in the recording chamber, impaled with electrodes and continuously perfused (5–15 mL min^−1) with frog Ringer's solution. The tested compounds are applied by bath perfusion.
Voltage protocols for evoking sodium channel currents: The standard holding potential for whole oocyte clamp is −120 mV. Standard current-voltage relationships are elicited by 40 ms depolarizing steps starting from −60 mV to +50 mV in 10 mV increments. Peak currents are measured as the maximum negative current after depolarizing voltage steps. The voltage from maximum current response is noted and used for the next voltage protocol.
The purpose is to find compounds that are state dependent modifiers of neuronal sodium channels. Preferably, the compounds have a low affinity for the rested/closed state of the channel, but a high affinity for the inactivated state. The following voltage protocol is used to measure a compounds affinity for the inactivated state. Oocytes are held at a holding potential of −120 mV. At this membrane voltage, nearly all of the channels are in the closed state. Then a 4 second depolarization is made to the voltage where the maximum current is elicited. At the end of this depolarization, nearly all the channels are in the inactivated state. A 10 ms hyperpolarizing step is then made in order to remove some channels from the inactivated state. A final depolarizing test pulse is used to assay the sodium current after this prolonged depolarization (see analysis below). Sodium currents are measured at this test pulse before and after the application of the tested compound. Data is acquired using PCLAMP 8.0 software and analyzed with […] software (Axon instruments). […]

[1] = apparent inhibition constant from single point inhibition data, rat brain type IIa/beta 1 Na+ channels in Xenopus oocytes, inactivated state, read-out: Ki (oocyte)

Sequence of rBIIa/beta 1 sodium channels expressed in Xenopus oocytes (P04775 whole entry): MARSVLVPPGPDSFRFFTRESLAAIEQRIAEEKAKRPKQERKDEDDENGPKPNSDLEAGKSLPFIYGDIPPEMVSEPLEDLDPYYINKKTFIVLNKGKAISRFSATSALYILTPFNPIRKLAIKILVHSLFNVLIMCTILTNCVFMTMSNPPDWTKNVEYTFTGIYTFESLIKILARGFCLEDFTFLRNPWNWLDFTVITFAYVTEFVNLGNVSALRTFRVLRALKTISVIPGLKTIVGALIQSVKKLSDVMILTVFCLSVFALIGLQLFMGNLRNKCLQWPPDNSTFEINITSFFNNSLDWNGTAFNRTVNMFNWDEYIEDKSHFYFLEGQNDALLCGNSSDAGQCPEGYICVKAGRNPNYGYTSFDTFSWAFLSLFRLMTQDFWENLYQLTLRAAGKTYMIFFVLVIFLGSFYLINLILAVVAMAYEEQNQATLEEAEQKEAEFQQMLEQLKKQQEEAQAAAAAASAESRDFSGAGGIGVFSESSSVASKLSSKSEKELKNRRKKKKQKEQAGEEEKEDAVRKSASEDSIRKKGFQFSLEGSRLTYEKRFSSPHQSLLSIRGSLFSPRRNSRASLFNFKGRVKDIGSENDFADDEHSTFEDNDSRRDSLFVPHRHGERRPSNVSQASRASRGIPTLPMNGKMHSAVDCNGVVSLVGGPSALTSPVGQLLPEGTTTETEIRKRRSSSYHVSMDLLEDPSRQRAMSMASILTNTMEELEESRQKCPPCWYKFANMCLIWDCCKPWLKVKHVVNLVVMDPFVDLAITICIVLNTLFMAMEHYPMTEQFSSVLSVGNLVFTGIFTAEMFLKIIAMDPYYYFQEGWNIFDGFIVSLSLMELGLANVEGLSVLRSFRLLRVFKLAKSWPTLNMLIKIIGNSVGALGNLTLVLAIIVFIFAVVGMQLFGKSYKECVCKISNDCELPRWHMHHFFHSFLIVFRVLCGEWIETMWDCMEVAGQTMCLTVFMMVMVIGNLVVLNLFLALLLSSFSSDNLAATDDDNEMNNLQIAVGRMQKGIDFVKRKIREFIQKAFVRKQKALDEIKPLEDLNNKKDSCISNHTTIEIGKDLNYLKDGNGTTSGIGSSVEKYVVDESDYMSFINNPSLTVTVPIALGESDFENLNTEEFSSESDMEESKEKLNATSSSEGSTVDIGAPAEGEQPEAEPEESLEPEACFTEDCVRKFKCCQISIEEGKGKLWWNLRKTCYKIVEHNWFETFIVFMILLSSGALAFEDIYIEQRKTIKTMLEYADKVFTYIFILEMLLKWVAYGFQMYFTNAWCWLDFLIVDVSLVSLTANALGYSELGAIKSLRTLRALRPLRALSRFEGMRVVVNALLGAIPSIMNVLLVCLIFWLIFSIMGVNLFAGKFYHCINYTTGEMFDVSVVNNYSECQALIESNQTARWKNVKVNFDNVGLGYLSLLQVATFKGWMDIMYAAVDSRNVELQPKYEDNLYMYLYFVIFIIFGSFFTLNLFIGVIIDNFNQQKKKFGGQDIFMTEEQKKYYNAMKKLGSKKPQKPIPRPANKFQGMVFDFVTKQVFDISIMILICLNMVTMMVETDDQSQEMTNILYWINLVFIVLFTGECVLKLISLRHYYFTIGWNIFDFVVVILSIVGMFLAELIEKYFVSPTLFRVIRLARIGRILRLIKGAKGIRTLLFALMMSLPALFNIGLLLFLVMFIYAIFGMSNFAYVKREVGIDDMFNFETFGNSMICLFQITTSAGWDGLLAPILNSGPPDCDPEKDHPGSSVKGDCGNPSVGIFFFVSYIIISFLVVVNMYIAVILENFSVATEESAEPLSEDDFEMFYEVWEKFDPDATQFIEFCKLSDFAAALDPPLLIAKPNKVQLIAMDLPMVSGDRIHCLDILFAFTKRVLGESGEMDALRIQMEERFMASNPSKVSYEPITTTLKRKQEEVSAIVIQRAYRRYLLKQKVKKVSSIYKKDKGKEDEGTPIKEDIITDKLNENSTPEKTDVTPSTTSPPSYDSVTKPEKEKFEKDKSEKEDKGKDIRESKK
Sequence of rBIIa/beta 1 sodium channels expressed in Xenopus oocytes (Q00954 19-218 partner): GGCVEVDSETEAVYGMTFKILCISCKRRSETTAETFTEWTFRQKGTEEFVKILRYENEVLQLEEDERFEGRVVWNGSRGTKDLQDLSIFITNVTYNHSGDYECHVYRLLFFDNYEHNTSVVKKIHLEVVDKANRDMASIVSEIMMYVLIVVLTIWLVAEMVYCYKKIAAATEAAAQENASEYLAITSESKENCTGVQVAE

SMILES | Ki [1] [µM] | Ki [µM]
O=C1CSC(c2cccc(Oc3ccccc3)c2)N1CCN1CCCCC1 (centres unmarked) | 0.43 | 
O=C1CSC(C=C(c2ccccc2)c2ccccc2)N1CCN1CCCCC1 (centres unmarked) | 0.29 | 
CC(C)(C)c1ccc(Oc2cccc(C3SCC(=O)N3CCN3CCCCC3)c2)cc1 (centres unmarked) | 0.18 | 
O=C1CSC(c2ccc(-c3ccc(Cl)cc3)o2)N1CCN1CCCCC1 (centres unmarked) | 0.6 | 
O=C1CSC(c2cccc(Oc3ccc(Cl)c(Cl)c3)c2)N1CCN1CCCCC1 (centres unmarked) | 0.18 | 
O=C1CSC(c2cccc(OCc3ccccc3)c2)N1CCN1CCCCC1 (centres unmarked) | 0.39 | 
O=C1CSC(c2cccc(Oc3ccc(Cl)cc3)c2)N1CCN1CCCCC1 (centres unmarked) | 0.39 | 
O=C1CSC(c2ccc(Oc3ccc(F)cc3)cc2)N1CCN1CCCCC1 (centres unmarked) | 0.5 | 
COc1ccc(Oc2cccc(C3SCC(=O)N3CCN3CCCCC3)c2)cc1 (centres unmarked) | 0.8 | 
O=C1CSC(C#Cc2ccccc2)N1CCN1CCCCC1 (centres unmarked) | 5.35 | 
O=C1CSC(C=Cc2ccccc2)N1CCN1CCCCC1 (centres unmarked) |  | 8.79
O=C1CSC(c2cccc3ccccc23)N1CCN1CCCCC1 (centres unmarked) | 2.83 | 
CC1SCC(=O)N1CCN1CCCCC1 (centres unmarked) | 70.7 | 
O=C1CSC(C=C(c2ccccc2)c2ccccc2)N1CCN1CCCC1 (centres unmarked) | 3.48 | 
CN(C)CCN1C(=O)CSC1C=C(c1ccccc1)c1ccccc1 (centres unmarked) | 2.6 | 
CN(C)CCN1C(=O)CSC1c1cccc(Oc2ccc(C(C)(C)C)cc2)c1 (centres unmarked) | 0.84 | 
O=C1CSC(c2cccc(Oc3ccccc3)c2)N1C1CCN(Cc2ccccc2)CC1 (centres unmarked) | 0.25 | 
O=C1CSC(c2cccc(OCc3ccccc3)c2)N1CCCn1ccnc1 (centres unmarked) | 6.55 | 

SMILES | Ki [1] [µM] | Ki [µM]
O=C1CSC(c2cccc(Oc3cccc(C(F)(F)F)c3)c2)N1Cc1ccccn1 (centres unmarked) | 3.4 | 
CN(C)CCN1C(=O)CSC1c1cccc(Oc2cc(Cl)cc(Cl)c2)c1 (centres unmarked) | 0.84 | 
CN(C)CCCN1C(=O)CSC1c1cccc(Oc2cc(Cl)cc(Cl)c2)c1 (centres unmarked) | 1.88 | 
O=C1CSC(c2ccc(Oc3ccc(F)cc3)cc2)N1C1CCN(Cc2ccccc2)CC1 (centres unmarked) | 0.28 | 
O=C1CSC(c2cccc(Oc3cccc(C(F)(F)F)c3)c2)N1CCN1CCCC1 (centres unmarked) | 0.42 | 
CCn1c2ccccc2c2cc(C3SCC(=O)N3CCN3CCCC3)ccc21 (centres unmarked) | 7.4 | 
O=C1CSC(c2cccc(OCc3ccccc3)c2)N1CCN1CCCC1 (centres unmarked) | 3.43 | 
O=C1CSC(c2cccc(Oc3ccc(Cl)c(Cl)c3)c2)N1CCN1CCOCC1 (centres unmarked) | 0.81 | 
O=C1CSC(c2cccc(Oc3ccc(Cl)c(Cl)c3)c2)N1CCN1CCCC1 (centres unmarked) | 0.72 | 
O=C1CSC(c2cccc(Oc3cccc(C(F)(F)F)c3)c2)N1CCCn1ccnc1 (centres unmarked) | 1.15 | 
CN(C)CCCN1C(=O)CSC1c1cccc(Oc2cccc(C(F)(F)F)c2)c1 (centres unmarked) | 2.75 | 
O=C1CSC(c2cccc(Oc3cccc(C(F)(F)F)c3)c2)N1CCNCc1ccccc1 (centres unmarked) | 0.05 | 
CC(C)N(CCN1C(=O)CSC1c1cccc(Oc2cccc(C(F)(F)F)c2)c1)C(C)C (centres unmarked) | 0.03 | 
CN(C)CC(C)(C)CN1C(=O)CSC1c1cccc(Oc2ccc(Cl)c(Cl)c2)c1 (centres unmarked) | 0.39 | 
CC1CCCCN1CCCN1C(=O)CSC1c1cccc(Oc2ccc(Cl)c(Cl)c2)c1 (centres unmarked) | 0.88 | 
CN(C)CC(C)(C)CN1C(=O)CSC1c1cccc(Oc2cccc(C(F)(F)F)c2)c1 (centres unmarked) | 0.23 | 
CC1CCCCN1CCCN1C(=O)CSC1c1cccc(Oc2cccc(C(F)(F)F)c2)c1 (centres unmarked) | 1.32 | 
